Source: ChEMBL document CHEMBL5329209, “Designing photoaffinity tool compounds for the investigation of the DENV NS2B-NS3 protease allosteric binding pocket” (RSC Med Chem, 2023)

Molecular target: T1, Genome polyprotein (dengue virus type 2, UniProt P29990)
Test: Binding affinity to N terminal hexa histidine tagged DENV2 NS2B-NS3 protease assessed as apparent Ki by Dixon plot analysis
Conditions: read-out: Ki(app)

T1 sequence (P29990 1346-1475 limits assumed): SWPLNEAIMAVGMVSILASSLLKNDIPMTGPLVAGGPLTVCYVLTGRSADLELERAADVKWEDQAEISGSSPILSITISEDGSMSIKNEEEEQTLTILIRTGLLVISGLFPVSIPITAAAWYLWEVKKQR
T1 sequence (P29990 1476-2093 limits assumed): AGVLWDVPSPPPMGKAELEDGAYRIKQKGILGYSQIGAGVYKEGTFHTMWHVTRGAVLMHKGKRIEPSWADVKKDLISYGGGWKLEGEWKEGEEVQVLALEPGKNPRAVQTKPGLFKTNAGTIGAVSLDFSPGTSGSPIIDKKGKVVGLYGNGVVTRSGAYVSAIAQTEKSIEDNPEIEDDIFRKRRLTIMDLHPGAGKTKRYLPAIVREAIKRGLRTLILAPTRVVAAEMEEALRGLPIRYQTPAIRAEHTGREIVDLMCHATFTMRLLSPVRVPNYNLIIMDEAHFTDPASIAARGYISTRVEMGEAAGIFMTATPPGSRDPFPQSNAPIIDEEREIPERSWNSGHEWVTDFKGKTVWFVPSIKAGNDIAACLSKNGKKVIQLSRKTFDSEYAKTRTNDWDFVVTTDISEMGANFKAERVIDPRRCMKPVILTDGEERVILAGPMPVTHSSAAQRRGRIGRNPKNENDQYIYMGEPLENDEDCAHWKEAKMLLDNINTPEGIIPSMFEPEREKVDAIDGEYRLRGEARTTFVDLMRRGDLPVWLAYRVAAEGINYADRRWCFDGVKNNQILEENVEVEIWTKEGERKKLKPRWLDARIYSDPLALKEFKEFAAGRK

O=C(Nc1nc2cc(O)c(O)cc2s1)c1ccc(C2(C(F)(F)F)N=N2)cc1 showed a Ki of 6.32 µM.

Molecular target: T1, Genome polyprotein
Test: Inhibition of DENV2 NS2B-NS3 protease using Boc-Gly-Arg-Arg-AMC as substrate by fluorometric analysis
Conditions: not given

Compared with CC1OCCC1SSC[C@@H](NC(=O)c1ccc(C2(C(F)(F)F)N=N2)cc1)C(=O)Nc1nc2cc(O)c(O)cc2s1 (stereo partly specified), CC(C)(C)SSC[C@@H](NC(=O)c1ccc(C2(C(F)(F)F)N=N2)cc1)C(=O)Nc1nc2cc(O)c(O)cc2s1 is 2-fold lower in IC50: 20 µM for the first, 10.2 µM for the second.

O=C(Nc1nc2cc(O)c(O)cc2s1)c1ccc(C2(C(F)(F)F)N=N2)cc1 and O=C(N[C@H](CS)C(=O)Nc1nc2cc(O)c(O)cc2s1)c1ccc(C2(C(F)(F)F)N=N2)cc1 are within 1.5-fold of each other in IC50: 9.97 µM for the first, 13.4 µM for the second.

Work on O=C(CN(CC1CC2C=CC1C2)C(=O)c1ccc(C2(C(F)(F)F)N=N2)cc1)Nc1nc2cc(O)c(O)cc2s1 (stereo unspecified) yielded an IC50 of 17 µM.
